Where two headings read alike, the source gives them in different places.
Key:
Format in all cases: cell-based
μ-opioid receptors (MOR) = target: T1, μ-opioid receptors (MOR) (Homo sapiens, UniProt P35372); test: MOR activity test: HEK293/MOR/CRE luciferase reporter, agonizing MOR and affecting downstream cAMP levels; settings: for Emax: HEK293, maximum effect of TRV-130 is 100%, read-out: Emax on agonizing MOR receptor and affecting cAMP levels
T1 construct: host or cells: HEK293
Description: The compounds of the present invention can activate μ-opioid receptors (MOR). Activated MOR can regulate intracellular cAMP levels, and cAMP enters the nucleus and binds to the CRE region of the reporter gene luciferase, thereby initiating the expression of the reporter gene. Luciferase can react with its substrate to emit fluorescence, and the measured fluorescence signals reflect the agonistic activity of the compounds.
The activity of the test example compounds on agonizing MOR and affecting downstream cAMP levels was tested by the following method.
MOR/pcDNA3.1 (+) and CRE/pGL4.29 were transferred into HEK293 cells. G418 and hygromycin were added into the culture medium, and HEK293/MOR/CRE monoclonal cell lines were screened in a 96-well cell culture plate.
HEK293/MOR/CRE monoclonal cells were cultured in a DMEM/high glucose medium (10% FBS, 1 mg/ml G418, 200 μg/ml hygromycin, mixed uniformly), and passaged every 3 days. On the day of the experiment, a cell suspension was prepared with a fresh cell medium, added to a 96 well plate (BD, #356692) with 20,000 cells/well, and incubated in 5% CO2 at 37° C. On the second day, the compound was dissolved in pure DMSO at a concentration of 20 mM, then formulated with DMSO to a first concentration of 4 mM and diluted in 10 fold concentration gradient to 6 concentrations. Then, 90 μl of DMSO was added to blank and control wells. Then, formulated compound was prepared by adding 2.5 μl of the compound solutions formulated in DMSO at a gradient concentration to 97.5 μl of a fresh cell culture medium containing 5 μM foscolin. Then, 10 μl of the formulated compound was added to the cell culture plate to make the final concentration of the compound 10000, 1000, 100, 10, 1, 0.1, or 0.01 nM, and the plate was incubated at 37° C., in 5% CO2 for 5 hours. In a 96-well cell culture plate, 100 μl of luciferase assay solution (Promega, # E6110) was added to each well. The plate was placed in the dark at room temperature for 10-15 minutes, blowed and aspirated 10 times, and 100 μl were pipetted to a 96 well white plate. The chemiluminescence signal values were read in a microplate reader (PE, Victor3), and the read data was processed using software.
The activity of the compounds of the present invention on agonizing MOR and affecting downstream cAMP levels was determined by the above test, and the EC50 values are shown in Table 1.1.

MOR receptor = target: T2, MOR receptor (Homo sapiens, UniProt P35372); test: Activation of the β-arrestin signaling pathway of MOR receptor (CHO-K1 OPRM1 β-Arrestin cells, DiscoveRX); settings: for Emax: maximum effect of morphine is 100%
T2 construct: host or cells: CHO-K1
T2 sequence (P35372 whole entry): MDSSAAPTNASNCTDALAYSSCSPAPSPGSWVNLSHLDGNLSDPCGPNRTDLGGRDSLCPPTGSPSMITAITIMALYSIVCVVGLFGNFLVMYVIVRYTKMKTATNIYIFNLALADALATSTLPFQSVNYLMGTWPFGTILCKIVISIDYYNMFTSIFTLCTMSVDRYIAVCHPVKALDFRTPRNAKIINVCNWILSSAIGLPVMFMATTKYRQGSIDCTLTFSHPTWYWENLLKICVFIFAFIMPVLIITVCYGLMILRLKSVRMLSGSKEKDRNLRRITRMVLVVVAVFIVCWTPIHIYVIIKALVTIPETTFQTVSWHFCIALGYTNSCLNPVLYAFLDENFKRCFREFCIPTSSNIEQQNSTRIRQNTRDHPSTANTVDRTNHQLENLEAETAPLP
Protocol: The experiment objective is to determine the activity of the compounds of the present invention on activating the β-arrestin signaling pathway of MOR receptor.
The drug was prepared as a 20 mM stock solution that was later diluted with 100% DMSO to a 200×concentration gradient, and then diluted with a 20-fold AssayComplete™ Cell Plating 2 Reagent (93-0563R2B, DiscoveRX) medium. The cell culture plate inoculated on the first day was taken out, and 10 μl of the diluted drug or control (0.5% DMSO) was added to each well. The plate was gently shaken and placed in an incubator at 37° C., 5% CO2 for 90 minutes. Finally, 50 μL of a detection reagent (93-0001, DiscoveRX) were added to each well, and the plate was placed at room temperature for 60 minutes. The absorbance values were measured by the cold light model of a microplate reader (PE, Victor3). The EC50 values of the compounds were calculated by Graphpad Prism software according to each concentration of the compound and the corresponding signal value.

hERG potassium channel = target: T3, hERG potassium channel (Homo sapiens, UniProt Q12809); test: Blocking of hERG potassium current, automatic patch clamp on HEK293-hERG cells
T3 construct: expressed in transfected cells; host or cells: HEK293
T3 sequence (Q12809 whole entry): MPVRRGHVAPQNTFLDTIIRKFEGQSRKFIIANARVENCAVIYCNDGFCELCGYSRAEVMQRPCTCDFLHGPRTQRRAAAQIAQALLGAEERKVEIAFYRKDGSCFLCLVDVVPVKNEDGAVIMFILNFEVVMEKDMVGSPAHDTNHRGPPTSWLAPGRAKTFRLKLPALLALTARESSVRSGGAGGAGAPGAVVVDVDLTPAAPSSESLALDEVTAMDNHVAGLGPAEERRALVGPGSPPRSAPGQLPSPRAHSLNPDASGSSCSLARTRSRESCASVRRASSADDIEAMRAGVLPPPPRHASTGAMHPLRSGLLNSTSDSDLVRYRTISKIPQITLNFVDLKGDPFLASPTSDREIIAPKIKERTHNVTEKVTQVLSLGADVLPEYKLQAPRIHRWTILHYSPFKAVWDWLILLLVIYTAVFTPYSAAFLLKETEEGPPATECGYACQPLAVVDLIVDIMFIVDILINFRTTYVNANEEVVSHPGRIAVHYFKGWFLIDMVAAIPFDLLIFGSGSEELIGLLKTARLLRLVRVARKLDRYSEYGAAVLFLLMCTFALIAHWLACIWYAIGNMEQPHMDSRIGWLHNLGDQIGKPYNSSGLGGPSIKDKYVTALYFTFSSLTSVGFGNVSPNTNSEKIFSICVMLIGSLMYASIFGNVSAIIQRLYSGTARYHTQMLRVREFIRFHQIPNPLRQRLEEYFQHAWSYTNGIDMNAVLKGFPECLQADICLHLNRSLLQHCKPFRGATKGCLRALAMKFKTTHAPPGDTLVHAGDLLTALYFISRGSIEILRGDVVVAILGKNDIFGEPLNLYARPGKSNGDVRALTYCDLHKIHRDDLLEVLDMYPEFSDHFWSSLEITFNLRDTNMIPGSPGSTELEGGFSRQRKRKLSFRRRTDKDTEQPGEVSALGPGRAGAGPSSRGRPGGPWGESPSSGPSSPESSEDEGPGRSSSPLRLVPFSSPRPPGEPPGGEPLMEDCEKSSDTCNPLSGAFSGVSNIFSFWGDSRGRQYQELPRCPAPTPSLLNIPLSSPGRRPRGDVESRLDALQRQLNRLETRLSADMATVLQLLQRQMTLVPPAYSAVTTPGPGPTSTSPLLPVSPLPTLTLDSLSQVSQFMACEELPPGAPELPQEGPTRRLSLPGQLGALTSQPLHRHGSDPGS
Protocol: The blocking effect of the compounds of the present invention and the positive compound TRV-130 (Journal of Pharmacology and Experimental Therapeutics, Volume 344, Issue 3, Pages 708-717, 2013) on hERG potassium current was tested on a stable cell line transfected with hERG potassium channel using an automatic patch clamp.
HEK293-hERG stabilized cells were subcultured at a density of 1:4 in a MEM/EBSS medium (10% FBS, 400 μg/ml G418, 1% MEM nonessential amino acid solution (100×), 1% sodium pyruvate solution) for 48-72 hours, then the automatic patch clamp experiment was performed. The cells were digested with 0.25% trypsin on the day of the experiment, then the cells were collected by centrifugation and resuspended with extracellular fluid (140 mM NaCl, 4 mM KCl, 1 mM MgCl2, 2 mM CaCl2, 5 mM D-glucose monohydrate, 10 mM Hepes, pH 7.4, 298 mOsmol) into a cell suspension. The cell suspension was placed on the cell bank of the Patchliner instrument, and the cells were added to the chip (NPC-16) by the negative pressure controller of the Patchliner instrument, with negative pressure attracting individual cells to the small hole of the chip. After the whole cell model was formed, the instrument generated the hERG current according to the preset hERG current and voltage program, and then the instrument perfused the compound from low concentration to high concentration automatically. HEAK Patchmaster, HEAK EPC10 patch clamp amplifier (Nanion), Pathliner software, and a data analysis software provided by Pathcontrol HTsoftware were used to analyze the current of the compounds at different concentrations and the current of the blank control.
The blocking effect of the compounds of the present invention on hERG potassium current was determined by the above test, and the IC50 values are shown in Table 3.

KOR receptor = target: T4, KOR receptor (Homo sapiens, UniProt P41145); test: KOR activity test: HEK293/KOR/CRE luciferase reporter, cAMP levels; settings: for Emax: HEK293, maximum effect of morphine is 100%
T4 construct: expressed in transfected cells; host or cells: HEK293
T4 sequence (P41145 whole entry): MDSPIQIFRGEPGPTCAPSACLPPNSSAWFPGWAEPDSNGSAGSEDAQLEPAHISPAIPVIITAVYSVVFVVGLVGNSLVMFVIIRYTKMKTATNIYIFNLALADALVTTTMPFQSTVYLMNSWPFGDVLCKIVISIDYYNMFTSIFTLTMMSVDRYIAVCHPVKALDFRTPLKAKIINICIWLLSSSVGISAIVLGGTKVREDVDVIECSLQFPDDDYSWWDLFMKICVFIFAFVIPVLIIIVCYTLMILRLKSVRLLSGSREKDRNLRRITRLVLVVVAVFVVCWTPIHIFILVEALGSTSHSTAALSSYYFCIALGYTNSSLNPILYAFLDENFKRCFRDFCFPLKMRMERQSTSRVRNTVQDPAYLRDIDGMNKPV
Protocol: (§1) The experiment objective is to determine the activity of the compounds of the present invention on agonizing KOR receptor and DOR receptor, and affecting downstream cAMP levels.
(§2) 90 μl of HEK293/KOR/CRE or HEK293/DOR/CRE (CRE cDNA purchased from Promega, product number E8471, KOR cDNA and DOR cDNA were constructed by our company) cells were inoculated in a 96-well plate with a density of 1×10^4 cells/well. Then, the cells were incubated overnight at 37° C., in 5% CO2. The drug was prepared as a 20 mM stock solution that was later diluted with 100% DMSO to a 200×concentration gradient, and then diluted with a 20-fold DMEM/high glucose (SH30243.01B, Hyclone) medium. The cell culture plate inoculated on the first day was taken out, and […] of the diluted drug or control (0.5% DMSO) was added to each well. The plate was gently shaken and placed in a incubator at 37° C., 5% CO2 for 4 hours. Finally, 100 μl of a detection reagent ONE-Glo (E6120, Promega) was added to each well, and the plate was placed at room temperature for 5 minutes. The absorbance value was measured by the cold light model of a microplate reader (PE, Victor3). The EC50 value of the compound was calculated by Graphpad Prism software according to each concentration of the compound and the corresponding signal value. Emax is the maximum effect of the compound on cAMP level changes.
(§3) The activity of the compounds of the present invention on agonizing KOR receptor or DOR receptor and affecting downstream cAMP levels was determined by the above test, and the EC50 values are shown in Table 1.2.

DOR receptor = target: T5, DOR receptor (Homo sapiens, UniProt P41143); test: DOR activity test: HEK293/DOR/CRE luciferase reporter, cAMP levels; settings: for Emax: HEK293, maximum effect of morphine is 100%
T5 construct: expressed in transfected cells; host or cells: HEK293
T5 sequence (P41143 whole entry): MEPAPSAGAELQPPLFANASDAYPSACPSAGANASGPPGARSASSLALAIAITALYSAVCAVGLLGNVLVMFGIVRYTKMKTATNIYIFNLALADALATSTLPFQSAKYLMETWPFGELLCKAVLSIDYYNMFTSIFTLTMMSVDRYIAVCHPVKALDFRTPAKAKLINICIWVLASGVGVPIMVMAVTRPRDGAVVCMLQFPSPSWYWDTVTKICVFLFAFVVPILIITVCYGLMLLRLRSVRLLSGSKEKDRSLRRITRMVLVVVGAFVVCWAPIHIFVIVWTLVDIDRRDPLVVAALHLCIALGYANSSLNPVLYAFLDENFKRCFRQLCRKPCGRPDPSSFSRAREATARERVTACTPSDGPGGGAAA
Protocol: as §1, §2, §3

[1] = HEK293/MOR/CRE cells, 5 h incubation, forskolin, read-out: EC50 on agonizing MOR receptor and affecting cAMP levels
[2] = CHO-K1 OPRM1 β-Arrestin cells, 90 minutes, read-out: EC50 on the β-arrestin signaling pathway
[3] = HEK293-hERG cells, automatic patch clamp, read-out: IC50 on blocking hERG potassium current
[4] = HEK293/KOR/CRE cells, 4 h incubation, read-out: KOR EC50
[5] = HEK293/DOR/CRE cells, 4 h incubation, read-out: DOR EC50

T1 sequence (P35372 whole entry): as the sequence (P35372 whole entry) above

| SMILES | EC50 (μ-opioid receptors (MOR); [1]) [nM] | Emax (μ-opioid receptors (MOR)) [%] | EC50 (MOR receptor; [2]) [nM] | Emax (MOR receptor) [%] | IC50 (hERG potassium channel; [3]) [µM] | EC50 (μ-opioid receptors (MOR)) [nM] | EC50 (KOR receptor) [nM] | Emax (KOR receptor) [%] | EC50 (DOR receptor) [nM] | Emax (DOR receptor) [%] | EC50 (MOR receptor) [nM] | IC50 (hERG potassium channel) [µM] | EC50 (KOR receptor; [4]) [nM] | EC50 (DOR receptor; [5]) [nM] |
| --- | --- | --- | --- | --- | --- | --- | --- | --- | --- | --- | --- | --- | --- | --- |
| CCN1CC[C@H](NCC[C@@]2(c3ccccn3)CCOC3(CCCC3)C2)c2ccccc21 [Example 1, (S)-1-ethyl-N-(2-((R)-9-(pyridin-2-yl)-6-oxaspiro[4.5]decan-9-yl)ethyl)-1,2,3,4-tetrahydroquinolin-4-amine] | 10 | 102 | 4 | 12 | 13 |  |  |  |  |  |  |  |  |  |
| O=C1CC[C@H](NCC[C@@]2(c3ccccn3)CCOC3(CCCC3)C2)c2ccccc21 [Example 11, (S)-4-((2-((R)-9-(pyridin-2-yl)-6-oxaspiro[4.5]decan-9-yl)ethyl)amino)-3,4-dihydronaphthalen-1(2H)-one] |  | 112 |  | 37 |  | 17 | 277 | 98 | 1920 | 80 | 305 | 4.1 |  |  |
| O[C@H]1CC[C@H](NCC[C@@]2(c3ccccn3)CCOC3(CCCC3)C2)c2ccccc21 [Example 12, (1S,4S)-4-((2-((R)-9-(pyridin-2-yl)-6-oxaspiro[4.5]decan-9-yl)ethyl)amino)-1,2,3,4-tetrahydronaphthalen-1-ol] |  | 125 |  |  |  | 2 |  |  |  |  |  | 10.2 |  |  |
| O[C@@H]1CC[C@H](NCC[C@@]2(c3ccccn3)CCOC3(CCCC3)C2)c2ccccc21 [Example 13, (1R,4S)-4-((2-((R)-9-(pyridin-2-yl)-6-oxaspiro[4.5]decan-9-yl)ethyl)amino)-1,2,3,4-tetrahydronaphthalen-1-ol] |  | 130 |  |  |  | 8 |  |  |  |  |  | 13.5 |  |  |
| CO[C@H]1CC[C@H](NCC[C@@]2(c3ccccn3)CCOC3(CCCC3)C2)c2ccccc21 [Example 14, (1S,4S)-4-methoxy-N-(2-((R)-9-(pyridin-2-yl)-6-oxaspiro[4.5]decan-9-yl)ethyl)-1,2,3,4-tetrahydronaphthalen-1-amine] |  | 109 |  | 24 |  | 3 | 1470 | 74 | 1510 | 91 | 26 | 8.6 |  |  |
| c1ccc([C@]2(CCN[C@H]3CCc4ccccc43)CCOC3(CCCC3)C2)nc1 [Example 16, (S)-N-(2-((R)-9-(pyridin-2-yl)-6-oxaspiro[4.5]decan-9-yl)ethyl)-2,3-dihydro-1H-inden-1-amine] |  | 122 |  | 9 |  | 9 |  |  |  |  | 94 | 10 |  |  |
| CCO[C@H]1CC[C@H](NCC[C@@]2(c3ccccn3)CCOC3(CCCC3)C2)c2ccccc21 [Example 19, (1S,4S)-4-ethoxy-N-(2-((R)-9-(pyridin-2-yl)-6-oxaspiro[4.5]decan-9-yl)ethyl)-1,2,3,4-tetrahydronaphthalen-1-amine] |  | 98 |  | 13 |  | 2 | 862 | 96 | 552 | 108 | 24 | 5.9 |  |  |
| c1ccc([C@]2(CCN[C@H]3CC[C@H](OCC4CC4)c4ccccc43)CCOC3(CCCC3)C2)nc1 [Example 20, (1S,4S)-4-(cyclopropylmethoxy)-N-(2-((R)-9-(pyridin-2-yl)-6-oxaspiro[4.5]decan-9-yl)ethyl)-1,2,3,4-tetrahydronaphthalen-1-amine] |  |  | 4 | 9 |  |  |  | 103 |  | 118 |  |  | 710 | 1520 |
| FCCO[C@H]1CC[C@H](NCC[C@@]2(c3ccccn3)CCOC3(CCCC3)C2)c2ccccc21 [Example 21, (1S,4S)-4-(2-fluoroethoxy)-N-(2-((R)-9-(pyridin-2-yl)-6-oxaspiro[4.5]decan-9-yl)ethyl)-1,2,3,4-tetrahydronaphthalen-1-amine] | 5 | 110 |  |  | 4.2 |  |  | 100 |  | 107 |  |  | 1180 | 1490 |
| COC[C@H]1CC[C@H](NCC[C@@]2(c3ccccn3)CCOC3(CCCC3)C2)c2ccccc21 [Example 22, (1S,4S)-4-(methoxymethyl)-N-(2-((R)-9-(pyridin-2-yl)-6-oxaspiro[4.5]decan-9-yl)ethyl)-1,2,3,4-tetrahydronaphthalen-1-amine] |  | 103 |  | 18 |  | 4 | 3090 | 97 | 2400 | 102 | 41 | 3.8 |  |  |
| c1ccc([C@]2(CCN[C@H]3CCC4(SCCS4)c4ccccc43)CCOC3(CCCC3)C2)nc1 [Example 24, (S)-N-(2-((R)-9-(pyridin-2-yl)-6-oxaspiro[4.5]decan-9-yl)ethyl)-3′,4′-dihydro-2′H-spiro[[1,3]dithiolane-2,1′-naphthalen]-4′-amine] | 0.8 | 102 | 6 | 30 | 2.5 |  |  |  |  |  |  |  |  |  |

— US10442793B2, “Oxa spiro derivative, preparation method therefor, and applications thereof in medicines” (Jiangsu Hengrui Medicine Co., Ltd., priority 2015, dated 2019)
